Results reported in US6228363A, “Peptides for the treatment of systemic lupus erythematosus” (Hadasit Medical Research Services & Development Company Ltd., priority 1997, dated 2001).

Experiments:
[1] = tested on: C72 murine anti-DNA antibody; assay: Competitive inhibition of C72 binding to 5200, ELISA; settings: antibody incubated with inhibitor before ELISA
Method: Competitive Inhibition Assays:
In competitive inhibition assays, the antibodies were incubated with various concentrations of the inhibitor (for example: peptide, DNA, heparin) or with DNase for 45 minutes at room temperature and the remaining binding was then evaluated by ELISA as described heretofore.
% inhibition was computed as
O.D. binding without inhibitor-O.D. binding with inhibitor×100=%
inhibition O.D. binding without inhibitor
The binding of C72 to 5200 was tested before and after incubation with 5200, R38, R18, Heparin, DNA and DNase. […] The percent inhibition is the percent reduction of the O.D. after incubation with the inhibiting agent.

[2] = tested on: murine urinary immunoglobulins; assay: Binding of murine urinary immunoglobulins, direct binding ELISA; design: species or system mice; settings: pooled urine
Method: (§1) Wells were coated with 10 μg/ml of the peptides, blocked with 1% BSA (bovine serum albumin) in PBS (pH 7,4), reacted with appropriately diluted serum or urine samples or monoclonal antibodies, incubated with anti-human or anti-mouse immunoglobulin enzyme conjugated to alkaline phosphatase and detected by addition of substrate (Sigma 100 Phosphatase Substrate Tablets) and color development using an Organon Teknika Microwell System spectrometer at wavelength of 405 nm.
Thus, pooled urine from at least 5 mice (either MRL/1pr/1pr or control mice, e.g. BALB/c) was added to wells coated with R38' (5200), R18 or DNA as described above and bound 5200 assayed by ELISA.
Binding of Murine Urinary Immunoglobulins To 5200
Each group is comprised of pooled urine.

[3] = tested on: C72 murine anti-DNA antibody; assay: Direct binding ELISA of C72 to laminin peptides; settings: for binding of C72 murine anti-DNA antibody to peptide (FIG. 1): C72 conditioned medium in various dilutions in PBS; for C72 Binding: O.D. in a direct binding ELISA test after one (1) hour
Method: The C72 murine anti-DNA antibody has been derived from (NZBxNZW)F1 lupus mice by the hybridoma technique as described in Eilat D. et al J. Immunol. (1991) 147 361-368. The monoclonal anti-DNA antibodies DIL6 and B3 were derived from lupus patients by hybridoma technique as described in Ehrenstein M. R. et al J. Clin. Invest. (1994) 93 1787-1799 and Ehrenstein M. R. et al Kidney Inter. (1995) 48 705-711.
Anti-Peptide (Direct Binding) ELISA:
as §1
The interaction of the C72 murine anti-DNA antibody with laminin peptides was analyzed by ELISA as described above. The C72 conditioned medium was diluted in PBS in various dilutions.
The peptides of the present invention were tested for their ability to bind directly with C72 murine anti-DNA antibodies and B3 human anti-DNA antibodies according to the methods described hereinabove.

Substance | inhibition of the binding of C72 to 5200 (FIG. 2) [1] | Binding of murine urinary immunoglobulins to antigen ([2]; BALB/c mice) | Binding of murine urinary immunoglobulins to antigen ([2]; MRL/lpr/lpr mice) | binding of C72 murine anti-DNA antibody to peptide (FIG. 1) [3] | C72 Binding [3] [O.D.]
DNA [reference compound] | inhibition | U.D. | U.D. |  | 
DNase | not |  |  |  | 
KONCLSSRASFRGCVRNLRLSR (PHTHSTSADTNDPIYVGGYPAH; UniProt P19137 3011-3032, looked up, fragment) [Peptide R30, mouse laminin α chain residues 3011-3032] |  |  |  | binding | 0.75
RPVRHAQCRVCDGNSTNPRERH [Peptide R18, peptide from the N-terminal of mouse laminin α chain, residues 42-63] |  | U.D. | U.D. | not | 0.01
heparin | inhibition |  |  |  | 
